Activity calls are given as the source filed them.
Experiments:
[1] = Counterscreen for inhibitors of Trypanosoma brucei methionyl tRNA synthetase (MetRS): Luminescence-based cell-based high throughput dose response assay to identify compounds that are cytotoxic to Jurkat human T lymphocyte cells.; assay type: functional
[2] = molecular target: T1, Methionyl-tRNA synthetase, putative (Trypanosoma brucei brucei, UniProt Q38C91); assay type: functional, Trypanosoma brucei brucei strain 927/4 GUTat10.1
T1 sequence (Q38C91 whole entry): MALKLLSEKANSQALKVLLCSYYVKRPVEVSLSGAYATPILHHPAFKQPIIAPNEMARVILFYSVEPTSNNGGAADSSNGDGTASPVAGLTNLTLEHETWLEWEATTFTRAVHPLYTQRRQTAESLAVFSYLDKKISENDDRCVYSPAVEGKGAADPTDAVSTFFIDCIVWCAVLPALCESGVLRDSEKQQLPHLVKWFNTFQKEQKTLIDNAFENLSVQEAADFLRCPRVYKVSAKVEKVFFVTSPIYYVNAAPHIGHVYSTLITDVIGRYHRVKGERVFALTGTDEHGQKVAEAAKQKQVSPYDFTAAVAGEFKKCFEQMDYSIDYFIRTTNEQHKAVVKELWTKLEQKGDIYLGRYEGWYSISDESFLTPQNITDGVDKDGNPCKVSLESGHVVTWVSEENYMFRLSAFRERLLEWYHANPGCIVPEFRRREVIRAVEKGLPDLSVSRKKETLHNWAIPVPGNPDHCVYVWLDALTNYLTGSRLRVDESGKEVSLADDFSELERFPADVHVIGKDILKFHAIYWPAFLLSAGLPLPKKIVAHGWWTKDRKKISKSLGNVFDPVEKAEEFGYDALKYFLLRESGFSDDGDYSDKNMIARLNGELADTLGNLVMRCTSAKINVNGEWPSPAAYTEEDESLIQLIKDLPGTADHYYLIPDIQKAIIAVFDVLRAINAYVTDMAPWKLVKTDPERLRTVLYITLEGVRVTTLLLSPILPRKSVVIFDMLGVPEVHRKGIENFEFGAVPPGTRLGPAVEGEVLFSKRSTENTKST

[3] = molecular target: T1, Methionyl-tRNA synthetase, putative; assay type: functional, Trypanosoma brucei brucei strain 927/4 GUTat10.1; remark: listed apart in the source
Steroidogenic factor 1 = Steroidogenic factor 1 (Homo sapiens, UniProt Q13285); assay: Counterscreen for inverse agonists of the liver receptor homolog-1 (LRH-1; NR5A2): Luminescence-based cell-based high throughput dose response assay to identify inverse agonists of the Steroidogenic Factor 1 Nuclear Receptor (SF1; NR5A1).; assay type: functional
Chain of Steroidogenic factor 1 (Q13285 whole entry): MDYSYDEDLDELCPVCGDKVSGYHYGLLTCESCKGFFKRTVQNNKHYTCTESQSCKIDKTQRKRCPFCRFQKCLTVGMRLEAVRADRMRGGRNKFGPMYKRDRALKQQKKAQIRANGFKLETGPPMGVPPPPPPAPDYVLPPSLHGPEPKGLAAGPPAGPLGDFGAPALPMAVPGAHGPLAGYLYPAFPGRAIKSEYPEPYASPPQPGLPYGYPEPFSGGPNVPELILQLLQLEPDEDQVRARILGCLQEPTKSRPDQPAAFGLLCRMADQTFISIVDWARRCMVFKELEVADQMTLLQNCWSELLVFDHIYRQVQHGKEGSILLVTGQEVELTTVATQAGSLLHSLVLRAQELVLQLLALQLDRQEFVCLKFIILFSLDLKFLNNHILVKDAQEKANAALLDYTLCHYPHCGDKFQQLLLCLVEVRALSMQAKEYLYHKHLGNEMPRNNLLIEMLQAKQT

[4] = StAR promoter reporter inhibition counter-screen, dose response, counter-screen for LRH-1 inverse agonist project, cell-based, luminescence, luciferase reporter (AID 651969); assay type: functional
[5] = molecular target: Nuclear receptor subfamily 5 group A member 2 (Homo sapiens, UniProt O00482); assay type: functional, cell-based;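 further: HEK293T cells transfected with LRH-1 and a StAR promoter luciferase reporter; potency for inhibitors that lower LRH-1 driven reporter light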
Chain of Nuclear receptor subfamily 5 group A member 2 (O00482 whole entry): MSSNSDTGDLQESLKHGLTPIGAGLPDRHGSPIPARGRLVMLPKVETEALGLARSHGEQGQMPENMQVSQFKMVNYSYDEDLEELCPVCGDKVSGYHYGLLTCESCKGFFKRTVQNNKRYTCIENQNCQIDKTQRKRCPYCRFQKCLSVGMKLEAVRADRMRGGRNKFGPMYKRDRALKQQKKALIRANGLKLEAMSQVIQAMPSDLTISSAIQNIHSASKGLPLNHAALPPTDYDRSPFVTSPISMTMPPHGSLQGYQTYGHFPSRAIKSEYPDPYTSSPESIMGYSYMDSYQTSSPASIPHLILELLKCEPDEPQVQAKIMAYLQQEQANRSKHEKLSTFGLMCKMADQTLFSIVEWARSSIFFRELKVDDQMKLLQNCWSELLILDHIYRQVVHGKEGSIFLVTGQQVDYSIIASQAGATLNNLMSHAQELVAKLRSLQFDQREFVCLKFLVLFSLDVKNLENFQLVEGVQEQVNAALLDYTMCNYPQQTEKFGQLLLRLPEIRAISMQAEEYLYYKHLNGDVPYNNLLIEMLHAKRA

[6] = molecular target: T2, Calpain-2 catalytic subunit (Sus scrofa, UniProt P43367); assay: pig calpain II inhibitor potency, dose response, biochemical, fluorogenic peptide substrate (AID 1420); assay type: functional
T2 sequence (P43367 whole entry): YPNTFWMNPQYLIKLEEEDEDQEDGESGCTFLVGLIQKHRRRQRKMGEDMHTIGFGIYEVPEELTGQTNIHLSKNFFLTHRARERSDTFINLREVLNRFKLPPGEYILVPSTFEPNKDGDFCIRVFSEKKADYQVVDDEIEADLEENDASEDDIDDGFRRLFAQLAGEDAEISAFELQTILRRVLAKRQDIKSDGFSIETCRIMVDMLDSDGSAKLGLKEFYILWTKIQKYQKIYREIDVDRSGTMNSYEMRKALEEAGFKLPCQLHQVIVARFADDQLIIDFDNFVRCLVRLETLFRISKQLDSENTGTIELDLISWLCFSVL

[7] = molecular target: T3, Oxysterols receptor LXR-beta (Homo sapiens, UniProt P55055); assay type: functional, cell-based;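 further: agonist activity at LXR measured by a cell-based luminescence readout across a dose range, run as a counterscreen for daf-12 agonists; HEK293 cells with Gal4-LXR fusion and GAL4-driven luciferase reporter; potency for activation of Gal4-LXR reporter so compounds are agonists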
T3 sequence (P55055 whole entry): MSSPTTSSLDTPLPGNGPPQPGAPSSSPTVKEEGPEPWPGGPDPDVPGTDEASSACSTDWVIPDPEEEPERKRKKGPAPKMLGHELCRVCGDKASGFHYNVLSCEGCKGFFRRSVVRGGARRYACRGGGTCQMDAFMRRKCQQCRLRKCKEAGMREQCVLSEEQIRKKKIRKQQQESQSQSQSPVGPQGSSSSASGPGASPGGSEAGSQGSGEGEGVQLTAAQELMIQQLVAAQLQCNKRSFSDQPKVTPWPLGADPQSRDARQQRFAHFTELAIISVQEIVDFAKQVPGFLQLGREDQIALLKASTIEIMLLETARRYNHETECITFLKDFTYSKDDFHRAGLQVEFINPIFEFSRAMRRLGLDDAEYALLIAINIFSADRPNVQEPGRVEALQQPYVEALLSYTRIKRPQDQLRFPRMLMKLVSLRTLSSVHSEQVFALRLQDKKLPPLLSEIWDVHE

fMet-Leu-Phe receptor = molecular target: T4, fMet-Leu-Phe receptor (Homo sapiens, UniProt P21462); assay: FPR ligands, dose response (AID 519); assay type: functional
T4 sequence (P21462 whole entry): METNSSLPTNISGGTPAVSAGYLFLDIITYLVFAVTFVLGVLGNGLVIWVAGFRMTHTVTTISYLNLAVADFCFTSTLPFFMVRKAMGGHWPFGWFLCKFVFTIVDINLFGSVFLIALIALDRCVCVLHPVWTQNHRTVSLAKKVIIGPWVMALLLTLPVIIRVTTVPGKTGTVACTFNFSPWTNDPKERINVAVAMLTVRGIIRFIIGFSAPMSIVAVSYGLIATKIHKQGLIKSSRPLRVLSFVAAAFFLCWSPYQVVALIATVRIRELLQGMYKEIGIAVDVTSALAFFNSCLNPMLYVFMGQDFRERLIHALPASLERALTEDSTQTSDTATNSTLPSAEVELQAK

[8] = Artemis endonuclease inhibitor potency, dose response, biochemical, fluorescence intensity (AID 720701); assay type: functional;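 further: Artemis endonuclease enzyme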
[9] = inhibitors of PGC1a acetylation in cells, dose response, cell-based, cherry-picked samples (AID 720514); assay type: functional;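 further: potency may reflect raised or lowered acetylation signal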
[10] = molecular target: T5, Long-chain-fatty-acid--AMP ligase FadD28 (Mycobacterium tuberculosis, UniProt P9WQ59); assay: Fluorescence polarization aasay to screen for inhibitors that compete for the binding of FadD28 to a bisubstrate Measured in Biochemical System Using Plate Reader - 2147-01_Inhibitor_Dose_CherryPick_Activity.; assay type: functional, Mycobacterium tuberculosis H37Rv
T5 sequence (P9WQ59 whole entry): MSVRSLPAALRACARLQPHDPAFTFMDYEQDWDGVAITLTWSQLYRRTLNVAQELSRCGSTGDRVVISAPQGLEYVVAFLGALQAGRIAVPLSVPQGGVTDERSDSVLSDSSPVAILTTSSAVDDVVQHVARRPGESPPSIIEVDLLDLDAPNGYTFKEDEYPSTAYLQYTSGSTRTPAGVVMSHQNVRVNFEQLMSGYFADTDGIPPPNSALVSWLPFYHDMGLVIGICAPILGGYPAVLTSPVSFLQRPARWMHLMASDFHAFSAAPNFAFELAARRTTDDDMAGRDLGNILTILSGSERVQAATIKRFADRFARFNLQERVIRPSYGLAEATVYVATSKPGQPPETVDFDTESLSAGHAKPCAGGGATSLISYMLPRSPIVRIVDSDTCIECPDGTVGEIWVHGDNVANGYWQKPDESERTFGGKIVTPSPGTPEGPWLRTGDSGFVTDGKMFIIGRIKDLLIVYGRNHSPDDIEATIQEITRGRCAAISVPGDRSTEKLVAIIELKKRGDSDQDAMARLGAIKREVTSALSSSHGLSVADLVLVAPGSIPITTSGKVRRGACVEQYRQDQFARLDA

[11] = off-target signal loss in HeLa-CEM21 co-culture – HeLa F-luc CTL cells, cherry-picked, counter-screen for HIV-1 Env fusion inhibitor project, dose response (AID 652040); assay type: functional, cell-based;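 further: potency for signal decrease marking cytotoxic or nonspecific inhibition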
[12] = inhibitors of clade B AD8 Env fusion, dose response, cell-based, cherry-pick (AID 652062); assay type: functional;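 further: luciferase signal from cell-cell fusion driven by HIV-1 clade B AD8 Env; potency is for inhibitors of fusion seen as a drop in luminescence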
[13] = inhibitors of HIV Env-driven cell fusion, dose response, cherry-pick (AID 652057); assay type: functional, cell-based
[14] = ZM109 Env clade C HIV-1 fusion inhibitors, dose response, HeLa effector, CEM target cells, luciferase, cherry-pick (AID 652058); assay type: functional, cell-based
[15] = NIH:OVCAR-3 ovarian cancer cell cytotoxicity, dose response, PAX8 inhibitor project, plate reader, dry powder samples (AID 743044); assay type: functional, cell-based
Paired box protein Pax-8 = Paired box protein Pax-8 (Homo sapiens, UniProt Q06710); assay: inhibitors of PAX8-driven TPO luciferase reporter, dose response, RMG-I cells, cherry-pick (AID 687027); assay type: functional, cell-based;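 further: luciferase reporter driven by Pax8 target thyroperoxidase promoter measured by SteadyGlo luminescence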
Chain of Paired box protein Pax-8 (Q06710 whole entry): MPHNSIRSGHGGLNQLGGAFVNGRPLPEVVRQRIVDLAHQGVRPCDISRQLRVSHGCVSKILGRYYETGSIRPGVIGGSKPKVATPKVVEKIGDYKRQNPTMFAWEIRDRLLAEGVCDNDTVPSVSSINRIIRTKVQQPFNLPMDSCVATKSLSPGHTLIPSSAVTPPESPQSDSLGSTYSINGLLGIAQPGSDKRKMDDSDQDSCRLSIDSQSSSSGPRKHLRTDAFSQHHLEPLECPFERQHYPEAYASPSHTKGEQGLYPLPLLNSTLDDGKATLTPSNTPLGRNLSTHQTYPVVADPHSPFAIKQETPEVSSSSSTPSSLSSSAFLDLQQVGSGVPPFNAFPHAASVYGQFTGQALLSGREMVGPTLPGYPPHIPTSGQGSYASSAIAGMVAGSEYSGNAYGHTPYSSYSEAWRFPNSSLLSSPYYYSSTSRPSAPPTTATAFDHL

[16] = cytotoxicity in OVCAR8 ovarian cancer cells, dose response, PAX8 project, cell-based, plate reader, dry powder samples (AID 743197); assay type: functional; conditions: OVCAR-8
[17] = A2780 ovarian cancer cell cytotoxicity, dose response, cytotoxicity control, plate reader, dry powder samples (AID 743046); assay type: functional, cell-based
[18] = non-specific cell cytotoxicity, dose response, cytotoxicity control for PAX8 inhibitor project, plate reader, dry powder samples (AID 743021); assay type: functional, cell-based
[19] = A375 melanoma cell viability loss, dose response, counter-screen for MITF inhibitor project, CellTiter-Glo luminescence, dry powder, set 4 (AID 624364); assay type: functional, cell-based; conditions: A-375;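 further: A375 melanoma cells are MITF independent so this is a counter screen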
[20] = A375 melanoma cell cytotoxicity, dose response, counter-screen for MITF inhibitor project, CellTiter-Glo luminescence, dry powder, set 2 (AID 624489); assay type: functional, cell-based; conditions: A-375;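 further: actives are compounds lowering A375 viability meaning general cytotoxicity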
[21] = LGR2 antagonists, dose response, cell-based, HEK293, CRE-luciferase reporter, cherry pick, set 2 (AID 743343); assay type: functional;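 further: transfected cells were stimulated with diluted bursicon conditioned medium after compound addition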
[22] = MC4R antagonists, dose response, counter-screen for LGR2 antagonist project, cell-based, plate reader, cherry pick (AID 743444); assay type: functional;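 further: transfected HEK 293 cells stimulated with alpha-MSH peptide; potency of inhibitors of the alpha-MSH evoked signal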
[23] = HEK293 cell cytotoxicity, dose response, cytotoxicity control, plate reader, cherry-picked samples (AID 743446); assay type: functional, cell-based
[24] = HepG2 cell cytotoxicity, dose response, cytotoxicity control, plate reader, cherry-pick, antagonist series (AID 743416); assay type: functional, cell-based

## O=C(NNC(=O)c1cc(-c2cccnc2)nc2ccccc12)Nc1ccc(Cl)cc1
[1]
  IC50: 63 µM (inactive)
[2]
  IC50: 39.5 µM (inactive)
[3]
  IC50: 25.8 µM (inactive)

## Cc1ccccc1C(=O)NC1CCN(CC(=O)Nc2ccc(Br)cc2)CC1
Steroidogenic factor 1
  IC50: 3.32 µM (active)
[4]
  IC50: 35.9 µM (inactive)
[5]
  IC50: 35.9 µM (inactive)

## O=C(NCc1ccco1)c1cccc(Nc2nc3cc(Br)ccc3[nH]2)c1
[1]
  IC50: 83.3 µM (inactive)

## O=C(NCc1ccco1)c1cccc(Nc2nc3ccc(Br)cc3[nH]2)c1
[6]
  IC50: 11.9 µM (not active)
[2]
  IC50: 22.3 µM (inactive)
[3]
  IC50: 13.5 µM (inactive)

## COc1ccccc1-c1noc(-c2cccs2)n1
[7]
  EC50: > 67.5 µM (inactive)

## CC1CCN(S(=O)(=O)c2ccc3c(c2)oc(=O)n3CC(=O)NCc2ccc3c(c2)OCO3)CC1
fMet-Leu-Phe receptor
  Ki: > 66.7 µM (inactive)

## CNc1nc(-c2c[nH]c3ccccc23)cs1
[8]
  IC50: > 20 µM (inactive)

## CCOC(=O)C1CCN(Cc2ccc(C(=O)OC)cc2)CC1
fMet-Leu-Phe receptor
  Ki: > 66.7 µM (inactive)

## Oc1cc(CSc2ccccn2)nc(O)n1
[9]
  AC50: 1.86 µM (active)

## O=C(CN1C(=O)NC2(CCOc3ccccc32)C1=O)c1ccc(Cl)s1 (centres undefined)
[10]
  AC50: > 100 µM (inactive)

## ON=C(CCc1ccccc1)c1ccccc1
[7]
  EC50: > 67.5 µM (inactive)

## COc1ccc(Nc2c(CCc3ccccc3)nc3nc(C)cc(C)n23)cc1
[11]
  AC50: 4.03 µM (active)
[12]
  AC50: 4.63 µM (active)
[13]
  AC50: 5.27 µM (active)
[14]
  AC50: 6.28 µM (active)

## O=C(OCC(=O)c1c[nH]c2ccccc12)c1ccc(F)c(S(=O)(=O)N2CCOCC2)c1
[10]
  AC50: 60.2 µM (active)

## C[C@@H]1CCCCO[C@H](CN(C)C(=O)Cc2ccccc2)[C@@H](C)CN([C@@H](C)CO)C(=O)c2cc(NS(=O)(=O)c3ccc(Cl)cc3)ccc2O1
[15]
  AC50: 23.3 µM (active)
Paired box protein Pax-8
  AC50: 7.18 µM (active)
[16]
  AC50: 39.2 µM (active)
[17]
  AC50: 48.6 µM (active)

## COc1ccccc1C#Cc1ccc2c(c1)O[C@@H](CN(C)Cc1cccnc1)[C@H](C)CN([C@H](C)CO)S2(=O)=O
[9]
  AC50: 5.09 µM (active)
Paired box protein Pax-8
  AC50: 2.04 µM (active)
[18]
  AC50: 21.8 µM (active)
[16]
  AC50: 18.3 µM (active)

## C=CCNC1=C(NCCCN(CC)CC)C(=O)c2ccccc2C1=O
[19]
  AC50: 25.3 µM (active)
[20]
  AC50: 17.9 µM (active)

## Cc1ccc(C(=O)C2C(=O)C3CCC2C3)cc1 (centres undefined)
[21]
  AC50: 8.6 µM (active)
[22]
  AC50: 4.95 µM (active)
[23]
  AC50: > 52 µM (inactive)

## O=C(NC1=C(c2ccc(OC(F)(F)F)cc2)C(=O)c2ccccc2C1=O)c1ccccc1
[19]
  AC50: 28.5 µM (active)
[20]
  AC50: 20.7 µM (active)

## COc1ccc(NC(=O)Nc2ccc3c(c2)CC(=O)N([C@@H](C)CO)C[C@@H](C)[C@H](CN(C)Cc2ccncc2)O3)cc1
[24]
  AC50: > 52 µM (inactive)
[23]
  AC50: > 52 µM (inactive)

## COc1cc(/C=N/NS(=O)(=O)c2ccc(C)cc2)ccc1OCc1cccc(C(=O)O)c1
[11]
  AC50: 5.81 µM (active)
Paired box protein Pax-8
  AC50: 13 µM (active)
[12]
  AC50: 6.48 µM (active)
[13]
  AC50: 2.17 µM (active)
[14]
  AC50: 19.5 µM (active)
